# Assay results as given in patent publication US8987193B2, “Nisin derivatives and the use thereof” (University College Cork—National University of Ireland, Cork, priority 2008, dated 2015).
# “Also recorded” adds a separate entry of the source. Ends that are not written are not given here.
# How the values were obtained:
# Staph. aureus DPC5245 = assay: Deferred antagonism assay; type: cell-based; details: producing strain; diameter of zone minus 5 mm; average of duplicates; St. aureus DPC5245
# Method in brief: (§1)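 Producer strains replicated on GM17 agar, grown overnight, then overlaid with soft agar (0.75% w/v) seeded with indicator strain. Zone size = clearing diameter minus 5 mm growth diameter, relative to NZ9800 pCI372nisA control; mean of duplicates.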
# [1] = tested on: Staph. aureus ST528 (MRSA); assay: Deferred antagonism assay; type: cell-based; details: producing strain, diameter of zone minus diameter of bacterial growth (5 mm), average of duplicates
# Method in brief: as §1
# [2] = tested on: Strep. agalactiae ATCC13813; assay: Deferred antagonism assay; type: cell-based; details: producing strain, diameter of zone minus 5 mm, average of duplicates
# L. monocytogenes CBC1 = assay: Deferred antagonism assay; type: cell-based, Listeria monocytogenes; set-up: key: + = Enhanced bioactivity relative to control; − = Bioactivity equal to or less than control; NA = no activity evident; details: producing strain; L. mono CBC1
# Method in brief: (§2)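 Producer strains replicated on GM17 or GM17 x-gal agar, grown overnight, then overlaid with 0.75% agar seeded with indicator strain. Zone size = diameter of clearing minus 5 mm growth diameter. Purified nisins tested by well diffusion at 37° C overnight; activity in AU/ml from reciprocal of highest active dilution × 20.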
# L. monocytogenes CBC2 = assay: Deferred antagonism assay; type: cell-based, Listeria monocytogenes; set-up: key: + = Enhanced bioactivity relative to control; − = Bioactivity equal to or less than control; NA = no activity evident; details: producing strain; L. mono CBC2
# Method in brief: as §2
# L. monocytogenes CBC3 = assay: Deferred antagonism assay; type: cell-based, Listeria monocytogenes; set-up: key: + = Enhanced bioactivity relative to control; − = Bioactivity equal to or less than control; NA = no activity evident; details: producing strain; L. mono CBC3
# Method in brief: as §2
# L. lactis CBC7 = assay: Deferred antagonism assay; type: cell-based; set-up: key: + = Enhanced bioactivity relative to control; − = Bioactivity equal to or less than control; NA = no activity evident; details: producing strain
# Method in brief: as §2
# L. lactis CBC8 = assay: Deferred antagonism assay; type: cell-based; set-up: key: + = Enhanced bioactivity relative to control; − = Bioactivity equal to or less than control; NA = no activity evident; details: producing strain
# Method in brief: as §2
# S. aureus CBC4 = assay: Deferred antagonism assay; type: cell-based; set-up: key: + = Enhanced bioactivity relative to control; − = Bioactivity equal to or less than control; NA = no activity evident; details: producing strain
# Method in brief: as §2
# C. sporogenes CBC5 = assay: Deferred antagonism assay; type: cell-based, Clostridium sporogenes; set-up: key: + = Enhanced bioactivity relative to control; − = Bioactivity equal to or less than control; NA = no activity evident; details: producing strain
# L. plantarum CBC6 = assay: Deferred antagonism assay; type: cell-based, Lactobacillus plantarum; set-up: key: + = Enhanced bioactivity relative to control; − = Bioactivity equal to or less than control; NA = no activity evident; details: producing strain
# Method in brief: as §2
# indicator strains = assay: Deferred antagonism assays, various indicator strains (summary); type: cell-based; details: for bioactivity of the producing strain, in words: in general / against the strains tested; for Strain(s) against which the derivative (producing strain) displays enhanced bioactivity: relative to nisin A-producing control, value = strains listed
# Method in brief: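 Producer strains were replicated on GM17 or GM17 x-gal agar, grown overnight, then overlaid with GM17, BHI, TS or MH soft agar (0.75% w/v) seeded with the indicator strain. Zone size was taken as the clearing diameter minus the diameter of bacterial growth (5 mm).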
Substance,zone size relative to that of the NZ9800 pCI372nisA control (Staph. aureus DPC5245),zone size relative to that of the NZ9800 pCI372nisA control [1],zone size relative to that of the NZ9800 pCI372nisA control [2],Bioactivity relative to control (L. monocytogenes CBC1),Bioactivity relative to control (L. monocytogenes CBC2),Bioactivity relative to control (L. monocytogenes CBC3),Bioactivity relative to control (L. lactis CBC7),Bioactivity relative to control (L. lactis CBC8),Bioactivity relative to control (S. aureus CBC4),Bioactivity relative to control (C. sporogenes CBC5),Bioactivity relative to control (L. plantarum CBC6),"bioactivity of the producing strain, in words (indicator strains)",Strain(s) against which the derivative (producing strain) displays enhanced bioactivity (indicator strains),"relative bioactivity against the indicators of Table 6 (indicator strains; Staph. aureus ST528, DPC5245 and Strep. agalactiae ATCC 13813 taken together)"
"NisinA K22L (ITSISLCTPGCKTGALMGCNMLTATCHCSIHVSK; not fully specified; cysteine pairing not given here; also: lantibiotic nisin-A; UniProt P13068 24-57, looked up, variant K22L) [nisin A derivative, hinge substitution K22L]",89%,93.5%,108%,−,−,−,−,+,−,−,−,retention of relatively high levels of bioactivity,L. lactis CBC8,
"NisinA N20R (ITSISLCTPGCKTGALMGCRMKTATCHCSIHVSK; not fully specified; also: lantibiotic nisin: dehydrated residues and thioether rings not placed; UniProt P13068 24-57, looked up, variant N20R) [nisin A derivative, hinge substitution N20R]",53.5%,0%,19%,−,−,−,−,−,−,+,−,greatly reduced bioactivities,C. sporogenes CBC5,
"K22D: nisin A derivative, hinge substitution K22D; peptide not detected by CMS (ITSISLCTPGCKTGALMGCNMDTATCHCSIHVSK; cysteine pairing not given here; also: lantibiotic nisin-A; UniProt P13068 24-57, looked up, variant K22D)",0%,0%,0%,−,−,−,−,−,−,−,−,devoid of bioactivity,,
"NisinA M21A (ITSISLCTPGCKTGALMGCNAKTATCHCSIHVSK; not fully specified; also: lantibiotic nisin: dehydrated residues and thioether rings not placed; UniProt P13068 24-57, looked up, variant M21A) [nisin A derivative, hinge substitution M21A]",135%,132.5%,105%,+,−,−,+,+,−,−,−,,"L. monocytogenes CBC1 and L. lactis CBCT and CBC8; also recorded: L. monocytogenes CBC1 , and L. lactis CBC7 and CBC8; also recorded: L. monocytogenes CBC1, L. lactis CBC7, CBC8, S. aureus",
"NisinA M21K (ITSISLCTPGCKTGALMGCNKKTATCHCSIHVSK; not fully specified; also: lantibiotic nisin: dehydrated residues and thioether rings not placed; UniProt P13068 24-57, looked up, variant M21K) [nisin A derivative, hinge substitution M21K]",104%,89%,91%,−,−,−,−,−,+,+,−,close to wild-type bioactivities,"Staph. aureus CBC4 and C. sporogenes CBC5; also recorded: S. aureus CBC 4 and C. sporogenes CBC5; also recorded: S. aureus CBC4, C. sporogenes CBC5",
"NisinA N20F (ITSISLCTPGCKTGALMGCFMKTATCHCSIHVSK; not fully specified; also: lantibiotic nisin: dehydrated residues and thioether rings not placed; UniProt P13068 24-57, looked up, variant N20F) [nisin A derivative, hinge substitution N20F]",20.5%,11.25%,15%,−,−,−,+,−,−,−,−,,L. lactis CBC7,
"NisinA K22G (ITSISLCTPGCKTGALMGCNMGTATCHCSIHVSK; cysteine pairing not given here; also: lantibiotic nisin-A; UniProt P13068 24-57, looked up, variant K22G) [nisin A derivative, hinge substitution K22G]",112%,118.5%,126%,−,−,−,+,+,−,−,−,,"L. lactis CBC7 and CBC8; also recorded: DPC5425, Strep. agalactiae ATCC 13813",approximately 120%
"N20V: nisin A derivative, hinge substitution N20V (ITSISLCTPGCKTGALMGCVMKTATCHCSIHVSK; cysteine pairing not given here; also: lantibiotic nisin-A; UniProt P13068 24-57, looked up, variant N20V)",77%,68%,63%,−,−,−,−,−,−,−,−,reduced bioactivity levels,,
